This note sets out measurements from patent US20230346747A1, “DIALKYL T[…] THEIR […] USES” (CAAMTECH, INC., priority 2020, published 2023).

Holding throughout (assay type): in vitro ADME
A short description of data set [1]: In vitro plasma stability, monkey plasma. The settings on record: cynomolgus monkey plasma, 37° C.; for half-life at 1 µM: male, pH 7.4, read-out: T½ (converted). An excerpt: (§1) Human plasma (Bioreclamation, Cat#: BRH470404, male:female=1:1,v:v); Rat plasma (HDB, Cat#: HDB_RsP_20221120, male:female=1:1,v:v); C57 Mouse plasma (HDB, Cat#: HDB_MsP_202201120, male:female=1:1,v:v); Male cynomolgus monkey plasma (RILD, Cat#: MP210107-P). Analytical grade inorganic salts were purchased from Sinopharm Chemical Reagent Co. (Shanghai, China). HPLC grade organic solvents were purchased from Sigma-Aldrich, USA. Distilled water, prepared from demineralized water, was used throughout the study.
(§2) Stock solution of test compound was provided in 100% DMSO. The stock solution for each compound was diluted into 100 µM with ACN(50%) and then diluted into plasma of different species (pH 7.4) to achieve a final concentration of 1.0 µM.
(§3) 1.0 µM of test compound in duplicate was incubated in plasma at 37° C. Aliquots of 50 µL or 80 µL sample were collected at 0, 0.25, 0.5, 1 and 2 h.
(§4) An aliquot of 50 µL samples were collected at various time points, and mixed with 300 µL of ice-cold 100% acetonitrile containing internal standard. After centrifuging the plate at 4000 rpm for 20 min, 50 µL of supernatants were added with 100 µL H2O, mix well and analyzed with UPLC-MS/MS.
(§5) A Waters liquid chromatographic system was used. Detection was performed on an API4000 Q-Trap and API5500 mass spectrometer equipped with TurbolonSpray (ESI) Interface (Applied Biosystems, Concord, Ontario, Canada). Analyst 1.5 and 1.6.2 software packages (Applied Biosystems) were used to control the LC-MS/MS system, as well as for data acquisition and processing.
(§6) Chromatographic separation was achieved on the Waters ACQUITY UPLC BEH C18 column (50*2.1 mm ID, 1.7 µm) and Thermo Scientific AccucoreTM PFP column(100*2.1 ID mm, 2.6 µm). The column temperature was maintained at ambient temperature (25° C.). The flow rate was maintained at 0.6 mL/min and the mobile phases used were according to Tables 5-7.
(§7) The peak area ratio of test compound to internal standard is plotted as a percentage of the relevant zero time point control (% Remained) for each reaction. The rate of metabolism (k) is the slope of the linear regression from log percentage remaining versus incubation time.

The nature of data set [2]: In vitro plasma stability, rat plasma. The settings on record: SD rat plasma, 37° C.; for half-life at 1 µM: both sexes, pH 7.4, read-out: T½ (converted).
From the text: as §1, §2, §3, §4, §5, §6, §7

Data set [3] in a line: In vitro plasma stability, mouse plasma. The settings on record: C57 mouse plasma, 37° C.; for Percent remaining after 2 h incubation / k: 1.0 µM; for half-life at 1 µM: both sexes, pH 7.4, read-out: T½ (converted); for k: pH 7.4.
From the text: as §1, §2, §3, §4, §5, §6, §7

A short description of data set [4]: In vitro plasma stability, human plasma. To be noted: 37° C.; for Percent remaining after 2 h incubation / k: 1.0 µM; for half-life at 1 µM: both sexes, pH 7.4, read-out: T½ (converted); for k: pH 7.4, slope of log % remaining versus incubation time.
From the text: as §1, §2, §3, §4, §5, §6, §7

For the molecule `CC(=O)Oc1cccc2[nH]cc(CCN(C)C)c12` [Compound 4-AcO-DMT, 4-acetoxy-N,N-dimethyltryptamine], the “Percent remaining after 2 h incubation” value in data set [1] (1.0 µM), in data set [2] (1.0 µM), in data set [3] and in data set [4] was 0.00% throughout. Moreover, the half-life at 1 µM in data set [1], in data set [2], in data set [3] and in data set [4] was < 7.5 min each time.
For `COc1ccc([C@@H]2Sc3ccccc3N(CCN(C)C)C(=O)[C@@H]2OC(C)=O)cc1` [Diltiazem], the “Percent remaining after 2 h incubation” value in data set [1] (1.0 µM) is given as 90.5%; in data set [2] (1.0 µM) it was 78.8%; in data set [3] it was 87.9%; in data set [4], 80.5%. In addition, the half-life at 1 µM in data set [1] is 768 min; in data set [2] it was 405 min; in data set [3] it was 636 min; in data set [4] it was 384 min.
For the molecule `CCN(CC)CCOC(=O)c1ccc(N)cc1` [Procaine], the “Percent remaining after 2 h incubation” value turned out to be 0.00% in data set [1] (1.0 µM), 52.0% in data set [2] (1.0 µM), 0.00% in data set [3] and 0.00% in data set [4]. Moreover, the k came to 26.073 in data set [1] (1.0 µM, pH 7.4); 0.347 in data set [2] (1.0 µM, pH 7.4); 11.212 in data set [3]. For the same molecule, the figures for the half-life at 1 µM in data set [2], in data set [3] and in data set [4] were 120 min, < 7.5 min and < 7.5 min, respectively.
Turning to `CN(C)CCc1c[nH]c2cccc(O)c12` [Psilocin], the “Percent remaining after 2 h incubation” value stood at 92.8% in data set [1] (1.0 µM), 86.2% in data set [2] (1.0 µM), 89.2% in data set [3] and 97.9% in data set [4]. Besides, the k in data set [1] (1.0 µM, pH 7.4) stood at 0.039; in data set [2] (1.0 µM, pH 7.4), 0.092; in data set [3] it was 0.048; in data set [4] it was 0.034. Further, the half-life at 1 µM is 1070 min in data set [1], 452 min in data set [2], 870 min in data set [3] and 1230 min in data set [4].
Turning to `CN(C)CCc1c[nH]c2cccc(OP(=O)(O)O)c12` [Psilocybin], the “Percent remaining after 2 h incubation” value was 113% in data set [1] (1.0 µM), 113% in data set [2] (1.0 µM), 93.2% in data set [3] and 19.4% in data set [4]. In addition, the T½ result in data set [1] (1.0 µM, pH 7.4) is “stable”; in data set [2] (1.0 µM, pH 7.4), “stable”. Further, the k in data set [1] (1.0 µM, pH 7.4) is -0.046; in data set [2] (1.0 µM, pH 7.4) it was -0.066; in data set [3], 0.008; in data set [4] it was 0.849. The values for the half-life at 1 µM in data set [3] and in data set [4] were 5490 min and 49.2 min, respectively.
